Assay results taken from article PMC7873226, “Molecular mechanism and structural basis of small-molecule modulation of the gating of acid-sensing ion channel 1” (Communications Biology, 2021).

Columns and labels:
rASIC1a F98A = target: T1, rASIC1a F98A (Rattus norvegicus, UniProt P55926, F98A); test: Inhibition of pH 6.0-induced current of mutant channel F98A; assay type: cell-based
T1 construct: expressed in transfected cells; host or cells: CHO cells, transient transfection (GFP cDNA co-transfected separately)
T1 sequence (P55926 1-526 F98A): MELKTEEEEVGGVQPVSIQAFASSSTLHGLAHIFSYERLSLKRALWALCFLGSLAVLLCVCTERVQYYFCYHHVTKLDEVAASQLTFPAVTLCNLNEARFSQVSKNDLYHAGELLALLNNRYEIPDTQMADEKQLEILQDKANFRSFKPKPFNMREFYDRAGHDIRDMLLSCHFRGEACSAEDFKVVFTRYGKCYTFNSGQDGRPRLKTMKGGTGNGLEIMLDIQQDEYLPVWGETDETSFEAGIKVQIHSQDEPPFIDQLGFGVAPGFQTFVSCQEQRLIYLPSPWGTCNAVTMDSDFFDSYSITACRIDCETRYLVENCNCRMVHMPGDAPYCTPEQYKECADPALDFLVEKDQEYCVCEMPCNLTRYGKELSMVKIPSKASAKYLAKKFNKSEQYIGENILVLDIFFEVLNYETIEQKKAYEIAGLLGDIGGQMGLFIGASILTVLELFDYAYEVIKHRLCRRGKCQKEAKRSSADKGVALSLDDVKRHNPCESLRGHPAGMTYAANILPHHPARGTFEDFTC
Experimental: Chinese Hamster Ovary (CHO) cells stably expressing rat ASIC1a were cultured in Ham’s F12, supplemented with 10% FBS, 1% penicillin–streptomycin and 500 µg/mL G418 and incubated at 37 °C with 5% CO2. Transient transfections of rASIC1a and cASIC1 wild-type or mutant channels in CHO cells were performed with Lipofectamine 3000 (Thermo Fisher Scientific) according to the manufacturer’s recommendations. The green fluorescent protein (GFP) cDNA (at 1/10 the amount of channel cDNA) was co-transfected with channel cDNA to aid the identification of transfected cells under the microscope in patch clamp experiments. All cDNAs were sequence verified.
Cells were freshly dissociated with CellStripper (Corning) and dispersed in a chamber on the stage of an inverted microscope. […]
All recordings were performed at room temperature using an Axopatch 200B amplifier and pClamp 11 software (Molecular Devices). Currents were measured by whole-cell patch clamp, digitized at 10 kHz and lowpass filtered at 2 kHz. […] Responses were elicited by rapid perfusion of acidic solutions using the SF-77B Fast-Step Perfusion device (Warner Instruments) for 40 ms once every 30 s (unless indicated otherwise) and recorded till steady state was reached. […]

ASIC2a = target: T2, ASIC2a (Rattus norvegicus, UniProt Q62962); test: Activity at ASIC2a; assay type: cell-based; settings: inactive at ASIC2a
T2 sequence (Q62962 1-512): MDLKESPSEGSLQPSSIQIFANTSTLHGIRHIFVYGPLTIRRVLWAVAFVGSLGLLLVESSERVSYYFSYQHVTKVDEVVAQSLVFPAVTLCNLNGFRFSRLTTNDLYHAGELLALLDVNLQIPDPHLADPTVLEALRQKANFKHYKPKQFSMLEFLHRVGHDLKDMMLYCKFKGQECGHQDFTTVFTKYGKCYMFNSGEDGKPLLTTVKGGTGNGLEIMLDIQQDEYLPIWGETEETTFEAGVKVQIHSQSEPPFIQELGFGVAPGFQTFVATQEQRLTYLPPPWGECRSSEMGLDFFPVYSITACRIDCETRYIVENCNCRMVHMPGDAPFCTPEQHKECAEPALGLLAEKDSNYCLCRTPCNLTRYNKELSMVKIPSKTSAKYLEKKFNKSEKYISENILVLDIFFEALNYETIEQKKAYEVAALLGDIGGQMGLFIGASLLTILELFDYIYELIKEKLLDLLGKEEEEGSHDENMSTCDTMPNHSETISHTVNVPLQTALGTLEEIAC

Row | IC50 (rASIC1a F98A) [nM] | IC50 (ASIC2a) [nM] | SMILES
1 | 726 ± 356 | > 50000 | COc1ccc(Oc2ccc(-c3nc4cc(C(=N)N)ccc4[nH]3)cc2)cc1OC [JNJ-799760]
2 | 626 ± 11 | > 50000 | Cc1cc(N2CC(Oc3cc(F)c4c(N)n[nH]c4c3)C2)c(F)cn1 [JNJ-67869386]
